According to ChEMBL document CHEMBL6127077, “Discovery and biological evaluation of 6-aryl-4-(3,4,5-trimethoxyphenyl)quinoline derivatives with promising antitumor activities as novel colchicine-binding site inhibitors” (Eur J Med Chem, 2024):
Active and inactive are the calls of the source. No cut-off for these calls is given here.

How the values were obtained:
Huh-7 [1] = assay: cells; conditions: Homo sapiens, Huh-7, 72 h
Description: Antiproliferative activity against human Huh-7 cells assessed as inhibition of cell growth incubated for 72 hrs by MTT assay

MCF7 = assay: cells; conditions: Homo sapiens, MCF7, 72 h
Description: Antiproliferative activity against human MCF7 cells assessed as inhibition of cell growth incubated for 72 hrs by MTT assay

SGC-7901 = assay: Antiproliferative activity against human SGC-7901 cells assessed as inhibition of cell growth incubated for 72 hrs by MTT assay; assay type: functional, cell-based; conditions: SGC-7901, 72 h
Tubulin (Homo sapiens) [2] = molecular target: T1, Tubulin (Homo sapiens) (UniProt P68371+Q9H4B7+P0DPH7+P68366+Q13509+Q71U36+P04350+Q3ZCM7+P07437+P68363+Q9BQE3+Q6PEY2+Q13885+Q9BVA1+Q9BUF5); assay: Disruption of microtubule network in human Huh-7 cells assessed as shortened microtubule wrap around the nucleus incubated for 24 hrs by DAPI staining based microscopic analysis; assay type: cell-based; conditions: dose 30-60 nM
[3] = Cytotoxicity against human HUVEC cells incubated for 72 hrs by MTT assay; assay type: toxicity, cell-based
[4] = Antiproliferative activity against human MCF7/ADM cells assessed as inhibition of cell growth incubated for 72 hrs by MTT assay; assay type: functional, cell-based
Huh-7 [5] = assay: Induction of apoptosis in human Huh-7 cells assessed as necrotic cells at 120 nM incubated for 48 hrs by Annexin-V/PI staining based flow cytometry analysis (reference value: 0.60%); assay type: functional
Huh-7 [6] = assay: Induction of apoptosis in human Huh-7 cells assessed as early apoptotic cells at 90 nM incubated for 48 hrs by Annexin-V/PI staining based flow cytometry analysis (reference value: 0.56%); assay type: functional
Huh-7 [7] = assay: Induction of cell cycle arrest in human Huh-7 cells assessed as accumulation of cells at G0/G1 phase at 60 nM incubated for 30 to 60 mins by RNase/PI staining based flow cytometry analysis (reference value: 55.08%); assay type: functional; conditions: time 30-60 min
Tubulin (Homo sapiens) [8] = molecular target: T1, Tubulin (Homo sapiens); assay: Inhibition of tubulin polymerization (unknown origin) by infinite F500 microplate reader analysis; assay type: protein-complex assay; conditions: dose 3-5 µM
Huh-7 [9] = assay: Induction of cell cycle arrest in human Huh-7 cells assessed as accumulation of cells at G0/G1 phase at 90 nM incubated for 30 to 60 mins by RNase/PI staining based flow cytometry analysis (reference value: 55.08%); assay type: functional; conditions: time 30-60 min
Huh-7 [10] = assay: Induction of cell cycle arrest in human Huh-7 cells assessed as accumulation of cells at G2M phase at 120 nM incubated for 30 to 60 mins by RNase/PI staining based flow cytometry analysis (reference value: 8.38%); assay type: functional; conditions: time 30-60 min
Huh-7 [11] = assay: Induction of apoptosis in human Huh-7 cells assessed as early apoptotic cells at 60 nM incubated for 48 hrs by Annexin-V/PI staining based flow cytometry analysis (reference value: 0.56%); assay type: functional
Huh-7 [12] = assay: Induction of apoptosis in human Huh-7 cells assessed as late apoptotic cells at 60 nM incubated for 48 hrs by Annexin-V/PI staining based flow cytometry analysis (reference value: 4.06%); assay type: functional
Huh-7 [13] = assay: Induction of apoptosis in human Huh-7 cells assessed as viable cells at 90 nM incubated for 48 hrs by Annexin-V/PI staining based flow cytometry analysis (reference value: 94.8%); assay type: functional; conditions: read-out: Activity
[14] = Toxicity in male BALB/c mouse assessed as liver damage at 15 mg/kg, ip administered every 2 days for 2 weeks by H and E staining based analysis; assay type: organism-based; conditions: in vivo, 336 h
[15] = Toxicity in male BALB/c mouse assessed as body weight loss at 15 mg/kg, ip administered every 2 days for 2 weeks; assay type: organism-based; conditions: in vivo, 336 h
Huh-7 [16] = assay: Induction of cell cycle arrest in human Huh-7 cells assessed as accumulation of cells at S-phase at 120 nM incubated for 30 to 60 mins by RNase/PI staining based flow cytometry analysis (reference value: 36.54%); assay type: functional; conditions: time 30-60 min
Huh-7 [17] = assay: Induction of cell cycle arrest in human Huh-7 cells assessed as accumulation of cells at G2M phase at 90 nM incubated for 30 to 60 mins by RNase/PI staining based flow cytometry analysis (reference value: 8.38%); assay type: functional; conditions: time 30-60 min
Huh-7 [18] = assay: Induction of apoptosis in human Huh-7 cells assessed as viable cells at 120 nM incubated for 48 hrs by Annexin-V/PI staining based flow cytometry analysis (reference value: 94.8%); assay type: functional; conditions: read-out: Activity
Huh-7 [19] = assay: Induction of apoptosis in human Huh-7 cells assessed as late apoptotic cells at 120 nM incubated for 48 hrs by Annexin-V/PI staining based flow cytometry analysis (reference value: 4.06%); assay type: functional
Huh-7 [20] = assay: Induction of apoptosis in human Huh-7 cells assessed as late apoptotic cells at 90 nM incubated for 48 hrs by Annexin-V/PI staining based flow cytometry analysis (reference value: 4.06%); assay type: functional
Huh-7 [21] = assay: Induction of cell cycle arrest in human Huh-7 cells assessed as accumulation of cells at S-phase at 90 nM incubated for 30 to 60 mins by RNase/PI staining based flow cytometry analysis (reference value: 36.54%); assay type: functional; conditions: time 30-60 min
Huh-7 [22] = assay: Induction of apoptosis in human Huh-7 cells assessed as necrotic cells at 60 nM incubated for 48 hrs by Annexin-V/PI staining based flow cytometry analysis (reference value: 0.60%); assay type: functional
Huh-7 [23] = assay: Induction of apoptosis in human Huh-7 cells assessed as early apoptotic cells at 120 nM incubated for 48 hrs by Annexin-V/PI staining based flow cytometry analysis (reference value: 0.56%); assay type: functional
Huh-7 [24] = assay: Induction of apoptosis in human Huh-7 cells assessed as viable cells at 60 nM incubated for 48 hrs by Annexin-V/PI staining based flow cytometry analysis (reference value: 94.8%); assay type: functional; conditions: read-out: Activity
Huh-7 [25] = assay: Induction of cell cycle arrest in human Huh-7 cells assessed as accumulation of cells at G2M phase at 60 nM incubated for 30 to 60 mins by RNase/PI staining based flow cytometry analysis (reference value: 8.38%); assay type: functional; conditions: time 30-60 min
Huh-7 [26] = assay: Induction of apoptosis in human Huh-7 cells assessed as necrotic cells at 90 nM incubated for 48 hrs by Annexin-V/PI staining based flow cytometry analysis (reference value: 0.60%); assay type: functional
Tubulin (Homo sapiens) [27] = molecular target: T1, Tubulin (Homo sapiens); assay: Inhibition of tubulin polymerization (unknown origin) at 3 to 5 uM by infinite F500 microplate reader analysis; assay type: protein-complex assay; conditions: dose 3-5 µM
Huh-7 [28] = assay: Induction of cell cycle arrest in human Huh-7 cells assessed as accumulation of cells at G0/G1 phase at 120 nM incubated for 30 to 60 mins by RNase/PI staining based flow cytometry analysis (reference value: 55.08%); assay type: functional; conditions: time 30-60 min
Tubulin (Homo sapiens) [29] = molecular target: T1, Tubulin (Homo sapiens); assay: Binding affinity to Tubulin (unknown origin) colchicine binding site assessed as reduction in colchicine-tubulin complex formation by Fluorescence based analysis; assay type: protein-complex assay; conditions: dose 2-6 µM
Huh-7 [30] = assay: Induction of cell cycle arrest in human Huh-7 cells assessed as accumulation of cells at S-phase at 60 nM incubated for 30 to 60 mins by RNase/PI staining based flow cytometry analysis (reference value: 36.54%); assay type: functional; conditions: time 30-60 min
Huh-7 [31] = assay: Antitumor activity against human Huh-7 cells xenografted in male BALB/c mouse at 15 mg/kg, ip administered every 2 days for 2 weeks; assay type: functional, organism-based

COc1cc(-c2ccnc3ccc(-c4cccc(C)c4)cc23)cc(OC)c1OC
IC50 (Huh-7 [1]): 1320 nM | IC50 (MCF7): 17900 nM | IC50 (SGC-7901): 35000 nM

COc1ccc(-c2ccc3nccc(-c4cc(OC)c(OC)c(OC)c4)c3c2)cc1O
IC50 (Huh-7 [1]): 120 nM | IC50 (MCF7): 3620 nM | IC50 (SGC-7901): 25300 nM

COc1ccc(-c2ccc3nccc(-c4cc(OC)c(OC)c(OC)c4)c3c2)cc1OC
IC50 (Huh-7 [1]): 80 nM | IC50 (MCF7): 960 nM | IC50 (SGC-7901): 880 nM

COc1ccc(/C=C\c2cc(OC)c(OC)c(OC)c2)cc1O [COMBRETASTATIN A4]
Activity (Tubulin (Homo sapiens) [2]): Dose-Dependent Effect | IC50 at 72 h [3]: 320 nM | IC50 (Huh-7 [1]): 79 nM | IC50 [4]: 2000 nM | IC50 (MCF7): 87 nM | IC50 (SGC-7901): 120 nM

COc1cc(-c2ccnc3ccc(-c4ccc(C)c(C)c4)cc23)cc(OC)c1OC
IC50 (Huh-7 [1]): 3670 nM | IC50 (MCF7): 1340 nM | IC50 (SGC-7901): 2150 nM

CCOc1ccc(-c2ccc3nccc(-c4cc(OC)c(OC)c(OC)c4)c3c2)cc1
IC50 (Huh-7 [1]): 420 nM | IC50 (MCF7): 3110 nM | IC50 (SGC-7901): 3870 nM

COc1cc(-c2ccnc3ccc(-c4cccc5[nH]ccc45)cc23)cc(OC)c1OC
Activity (Huh-7 [5]): 2.45% | Activity (Huh-7 [6]): 4.05% | Activity (Tubulin (Homo sapiens) [2]): Dose-Dependent Effect | Activity (Huh-7 [7]): 53.2% | inhibition (Tubulin (Homo sapiens) [8]): Dose-Dependent Effect | IC50 at 72 h [3]: 5820 nM | Activity (Huh-7 [9]): 47.21% | Activity (Huh-7 [10]): 48.72% | Activity (Huh-7 [11]): 1.05% | Activity (Huh-7 [12]): 6.27% | viability at 0.09 µM (Huh-7 [13]): 72.5% | Activity [14]: Non-Toxic | Activity [15]: Non-Toxic | Activity (Huh-7 [16]): 42.03% | Activity (Huh-7 [17]): 28.14% | viability at 0.12 µM (Huh-7 [18]): 63.5% | Activity (Huh-7 [19]): 29.3% | Activity (Huh-7 [20]): 20.1% | IC50 (Huh-7 [1]): 30 nM | Activity (Huh-7 [21]): 24.65% | Activity (Huh-7 [22]): 1.58% | IC50 [4]: 520 nM | Activity (Huh-7 [23]): 4.73% | viability at 0.06 µM (Huh-7 [24]): 91.1% | Activity (Huh-7 [25]): 9.39% | Activity (Huh-7 [26]): 3.39% | inhibition (Tubulin (Homo sapiens) [27]): Active | Activity (Huh-7 [28]): 9.25% | Activity (Tubulin (Homo sapiens) [29]): Dose-Dependent Effect | IC50 (MCF7): 130 nM | Activity (Huh-7 [30]): 37.41% | Activity (Huh-7 [31]): Active | IC50 (SGC-7901): 180 nM

COc1cc(-c2ccnc3ccc(-c4ccc(C)cc4)cc23)cc(OC)c1OC
IC50 (Huh-7 [1]): 1150 nM | IC50 (MCF7): 1360 nM | IC50 (SGC-7901): 600 nM

COc1cc(-c2ccnc3ccc(-c4ccc(Cl)cc4)cc23)cc(OC)c1OC
IC50 (Huh-7 [1]): 4560 nM | IC50 (MCF7): 16200 nM | IC50 (SGC-7901): 12100 nM

COc1cc(-c2ccnc3ccc(-c4ccc(O)cc4)cc23)cc(OC)c1OC
IC50 (Huh-7 [1]): 320 nM | IC50 (MCF7): > 100000 nM | IC50 (SGC-7901): 1910 nM

COc1cc(-c2ccnc3ccc(-c4ccsc4)cc23)cc(OC)c1OC
IC50 (Huh-7 [1]): 270 nM | IC50 (MCF7): 2240 nM | IC50 (SGC-7901): 1780 nM
